Reference: patent US20200397751A1, “Modulation of AMPA/kainate Receptors for the Treatment of Hypoglycemia” (priority 2017, published 2020)

Test system: isolated rodent islets
Assay: Glucagon secretion by isolated rodent islets in culture at varying glucose concentrations, 1 hr PAM treatment, glucagon by ELISA
Type: cell-based
Method: In an in vitro approach, isolated rodent islets maintained in culture in 96-well plates are treated for 1 hr with PAMs. Simultaneous with addition of PAMs, islets are exposed by media exchange to glucose concentrations ranging from hypoglycemic to hyperglycemic: e.g., 2 mM, 6 mM, 12 mM, 18 mM, etc. At the end of a 1 hour PAM treatment in varying glucose concentrations, glucagon levels in each treatment condition are then measured by ELISA.

[1] = euglycemic and hyperglycemic conditions

## O=C1c2cccnc2OC[C@@H]2CCCN12 [ORG26576]
[1]
  amount of glucagon released into a culture media by isolated islets: not
Hypoglycemic conditions
  amount of glucagon released into a culture media by isolated islets: dose-dependently upregulate

## COc1ccc(C(=O)N2CCCC2=O)cc1 [aniracetam]
[1]
  amount of glucagon released into a culture media by isolated islets: not
Hypoglycemic conditions
  amount of glucagon released into a culture media by isolated islets: dose-dependently upregulate

## CC(CNS(=O)(=O)C(C)C)c1ccc(-c2ccc(C#N)cc2)cc1 (stereo not drawn) [LY404187]
[1]
  amount of glucagon released into a culture media by isolated islets: not
Hypoglycemic conditions
  amount of glucagon released into a culture media by isolated islets: dose-dependently upregulate
